Among the data in ChEMBL document CHEMBL1125857, “Synthesis of substrate-based inhibitors of HMG CoA reductase (II)” (Bioorg Med Chem Lett, 1991) are IC50 values, retold here.

Molecules are shown by their SMILES.

The target in the experiment is T1, 3-hydroxy-3-methylglutaryl-coenzyme A reductase (Rattus norvegicus, UniProt P51639).
T1 sequence (P51639 whole entry): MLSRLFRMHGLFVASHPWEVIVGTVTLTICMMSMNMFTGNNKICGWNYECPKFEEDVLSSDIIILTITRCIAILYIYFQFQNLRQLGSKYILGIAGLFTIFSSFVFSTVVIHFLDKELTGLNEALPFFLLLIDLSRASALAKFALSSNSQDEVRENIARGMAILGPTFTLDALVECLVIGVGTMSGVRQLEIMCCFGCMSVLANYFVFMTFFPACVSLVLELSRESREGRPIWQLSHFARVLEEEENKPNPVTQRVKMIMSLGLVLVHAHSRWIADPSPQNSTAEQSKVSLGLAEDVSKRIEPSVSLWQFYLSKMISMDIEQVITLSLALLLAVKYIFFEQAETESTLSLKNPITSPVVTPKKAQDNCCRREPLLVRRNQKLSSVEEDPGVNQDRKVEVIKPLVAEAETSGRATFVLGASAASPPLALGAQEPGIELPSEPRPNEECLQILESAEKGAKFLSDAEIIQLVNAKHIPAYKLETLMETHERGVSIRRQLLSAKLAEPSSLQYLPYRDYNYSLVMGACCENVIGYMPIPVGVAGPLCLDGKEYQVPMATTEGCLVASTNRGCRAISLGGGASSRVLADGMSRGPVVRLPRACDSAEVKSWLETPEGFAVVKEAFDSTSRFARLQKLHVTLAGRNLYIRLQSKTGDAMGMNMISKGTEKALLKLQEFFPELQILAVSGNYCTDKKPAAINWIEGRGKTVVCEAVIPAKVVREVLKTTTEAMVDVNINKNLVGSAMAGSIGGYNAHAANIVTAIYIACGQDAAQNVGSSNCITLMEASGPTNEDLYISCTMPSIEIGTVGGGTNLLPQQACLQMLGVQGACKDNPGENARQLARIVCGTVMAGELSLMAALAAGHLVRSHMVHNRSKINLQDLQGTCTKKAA
Briefly: Compound was tested for inhibitory activity against rat hepatic microsomal HMG-CoA reductase; lacked significant inhibitory activity. The note with it: read-out: I50.
In the case of `CC(C)[C@@H](O)C(=O)NCCC(=O)NCCNCC(O)CC(O)CC(=O)O` (stereo partly drawn), the IC50 was above 1000 µM.

With `CC(C)[C@@H](O)C(=O)NCCC(=O)NCCNC(=O)C[C@@](C)(O)CC(=O)O`, the IC50 was above 1000 µM.

`CC(C)[C@@H](O)C(=O)NCCC(=O)NCCNC(=O)C[C@@H](O)CC(=O)O`: the IC50 is above 1000 µM.
